How the values were obtained:
[1] = system: mast cells; assay: Phosphorylation and degranulation markers in antigen-stimulated mast cells grown with chronic SCF (FIG. 21); assay type: cell-based; details: 1 μM, antigen 15 minutes
Protocol: Histamine release, CD63 expression, CD203c expression, pBTK (Y223) levels, pP38 (T180/Y182) levels, pPLCg1 (S1248) levels, pERK (T202/Y204) levels, and pS6 (S235/236) levels are shown. Mast cells were grown with continuous (chronic) exposure to SCF and then stimulated with antigen (Ag) for 15 minutes, leading to phosphorylation of multiple kinases, including pBTK, pPLCγ1, pP38, pERK, and pS6 ribosome. This stimulation increases degranulation markers, including CD63, CD203c, and histamine release.

[2] = ISM patients, cited from earlier work
[3] = system: basophils; assay: Comparison of BTK inhibitors by BAT (CD63 and CD203c); assay type: cell-based, human; details: concentration of 1 μM; 2 hours; blood from a healthy donor
Protocol: The BAT assay using the Flow Cast Basophil Activation Kit (Buhlmann Diagnostics; Catalog #B-CCR-STCON) was then conducted following manufacturer instructions by (1) stimulating the blood with anti-FcεR stimulation control in stimulation buffer with IL-3 and staining cells for CCR3 and CD63 for 15 minutes at 37° C., (2) lysing red blood cells and fixing cells with Lysing Reagent at room temperature for 10 minutes, (3) washing cells with Wash Buffer, and (4) acquiring data on a flow cytometer. Activated basophils were defined as CCR3+, low side scatter and CD63+. Percent of activated basophils was calculated as number of activated basophils over the total number of basophils. A four-parameter logistic regression was applied to determine the EC50 and EC90.
Blood samples were gently rocked at room temperature for 2 hours. […] Activated basophils were also defined as CCR3+, low side scatter and CD203c+.

[4] = cited from earlier work

In the case of `Cn1cc(-c2cc3c(N4CCN(c5ncc([C@@](C)(N)c6ccc(F)cc6)cn5)CC4)ncnn3c2)cn1` [avapritinib], the “phosphorylation and degranulation (activation)” value [1] is listed as “only partially inhibits activation”, the “reduction of total symptom score compared to the placebo” value ([2]; 25 mg QD, Week 24, ISM-SAF survey) is listed as 5.7 points and the “adverse reactions leading to dose interruptions” value ([2]; 25 mg QD) is listed as 5%. The “treated subjects who failed to achieve a mean symptom score reduction of 30%” value ([2]; first 6 months of treatment) was “approximately half” and the “subjects who achieved a 50% symptom score reduction” value ([2]; within the first 6 months of treatment) was “about a third”.

With `CC#CC(=O)N1CCC[C@H]1c1nc(-c2ccc(C(=O)Nc3ccccn3)cc2)c2c(N)nccn12` [acalabrutinib, (S)-4-(8-amino-3-(1-(but-2-ynoyl)pyrrolidin-2-yl)imidazo[1,5-a]pyrazin-1-yl)-N-(pyridin-2-yl)benzamide, reference compound] the “effect on basophil activation (CD63+, CD203c+)” value [3] was “no effect on basophil activation”.

In the case of `Cc1nc(Nc2ncc(C(=O)Nc3c(C)cccc3Cl)s2)cc(N2CCN(CCO)CC2)n1` [dasatinib], the “subjects who discontinued treatment due to toxicity” value ([4]; overall, AdvSM and ISM subjects) is given as 34% and the “pleural effusion, grade 3 adverse event” value ([4]; patients overall) is given as 10%.

Reference: US12653827B2, “Methods of treating indolent systemic mastocytosis” (Telios Pharma Inc., priority 2024, dated 2026)
